Laboratory results taken from PubChem BioAssay AID272 (DTP/NCI, 2004).
“And” between values parts separate entries of the source, which are not always exact repeats. Equal values may be shown once. Results filed as inconclusive are left out.

Test system: Lewis lung carcinoma i.m., BDF1 mice, T/C %
Test: NCI In Vivo Anticancer Drug Screen. Data for tumor model Lewis Lung Carcinoma (intramuscular) in B6D2F1 (BDF1) mice
Details: endpoint: mean tumor weight, higher = larger tumour
Method in brief: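 Tumour-bearing mice were dosed with compound, and either their survival or their tumour size was measured. Results were expressed relative to vehicle-treated controls as T/C.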

SMILES: CCc1nc(N)nc(N)c1-c1ccc(Cl)cc1
- T/C (dose: 2.0 mg/kg/injection, schedule: Q06HX008 (ip), vehicle: Klucel (hydroxypropylcellulose) (HPC)): 104 % of control
- T/C (dose: 4.0 mg/kg/injection, schedule: Q01DX009 (ip), vehicle: Klucel (hydroxypropylcellulose) (HPC)): 87 % of control
- T/C (dose: 4.0 mg/kg/injection, schedule: Q01DX009 (oral), vehicle: Klucel (hydroxypropylcellulose) (HPC)): 37 % of control
- T/C (dose: 4.0 mg/kg/injection, schedule: Q01DX009 (sc), vehicle: Klucel (hydroxypropylcellulose) (HPC)): 95 % of control
- T/C (dose: 4.0 mg/kg/injection, schedule: Q06HX004 (ip), vehicle: Klucel (hydroxypropylcellulose) (HPC)): 82 % of control
- T/C (dose: 4.0 mg/kg/injection, schedule: Q06HX012 (ip), vehicle: Klucel (hydroxypropylcellulose) (HPC)): 71 % of control
- T/C (dose: 8.0 mg/kg/injection, schedule: Q01DX001 (sc), vehicle: Klucel (hydroxypropylcellulose) (HPC)): 66 % of control
- T/C (dose: 8.0 mg/kg/injection, schedule: Q01DX009 (ip), vehicle: Klucel (hydroxypropylcellulose) (HPC)): 67 % of control
- T/C (dose: 8.0 mg/kg/injection, schedule: Q01DX009 (oral), vehicle: Klucel (hydroxypropylcellulose) (HPC)): 31 % of control
- T/C (dose: 8.0 mg/kg/injection, schedule: Q01DX009 (sc), vehicle: Klucel (hydroxypropylcellulose) (HPC)): 76 % of control
- T/C (dose: 8.0 mg/kg/injection, schedule: Q04DX003 (ip), vehicle: Klucel (hydroxypropylcellulose) (HPC)): 92 % of control
- T/C (dose: 8.0 mg/kg/injection, schedule: Q06HX004 (ip), vehicle: Klucel (hydroxypropylcellulose) (HPC)): 75 % of control
- T/C (dose: 8.0 mg/kg/injection, schedule: Q06HX008 (ip), vehicle: Klucel (hydroxypropylcellulose) (HPC)): 65 % of control and 68 % of control
- T/C (dose: 8.0 mg/kg/injection, schedule: Q06HX012 (ip), vehicle: Klucel (hydroxypropylcellulose) (HPC)): 57 % of control
- T/C (dose: 8.0 mg/kg/injection, schedule: Q08DX002 (ip), vehicle: Klucel (hydroxypropylcellulose) (HPC)): 85 % of control
- T/C (dose: 12.5 mg/kg/injection, schedule: Q01DX011 (ip), vehicle: steriod suspending solution): 65 % of control
- T/C (dose: 16.0 mg/kg/injection, schedule: Q01DX001 (ip), vehicle: Klucel (hydroxypropylcellulose) (HPC)): 71 % of control
- T/C (dose: 16.0 mg/kg/injection, schedule: Q01DX001 (oral), vehicle: Klucel (hydroxypropylcellulose) (HPC)): 84 % of control
- T/C (dose: 16.0 mg/kg/injection, schedule: Q01DX001 (sc), vehicle: Klucel (hydroxypropylcellulose) (HPC)): 75 % of control and 80 % of control
- T/C (dose: 16.0 mg/kg/injection, schedule: Q01DX009 (ip), vehicle: Klucel (hydroxypropylcellulose) (HPC)): 83 % of control and 98 % of control
- T/C (dose: 16.0 mg/kg/injection, schedule: Q01DX009 (oral), vehicle: Klucel (hydroxypropylcellulose) (HPC)): 38 % of control
- T/C (dose: 16.0 mg/kg/injection, schedule: Q01DX009 (sc), vehicle: Klucel (hydroxypropylcellulose) (HPC)): 80 % of control
- T/C (dose: 16.0 mg/kg/injection, schedule: Q04DX003 (ip), vehicle: Klucel (hydroxypropylcellulose) (HPC)): 73 % of control and 78 % of control
- T/C (dose: 16.0 mg/kg/injection, schedule: Q06HX004 (ip), vehicle: Klucel (hydroxypropylcellulose) (HPC)): 84 % of control
- T/C (dose: 16.0 mg/kg/injection, schedule: Q06HX008 (ip), vehicle: Klucel (hydroxypropylcellulose) (HPC)): 58 % of control and 73 % of control
- T/C (dose: 16.0 mg/kg/injection, schedule: Q06HX012 (ip), vehicle: Klucel (hydroxypropylcellulose) (HPC)): 56 % of control
- T/C (dose: 25.0 mg/kg/injection, schedule: Q01DX011 (ip), vehicle: steriod suspending solution): 57 % of control
- T/C (dose: 32.0 mg/kg/injection, schedule: Q01DX001 (ip), vehicle: Klucel (hydroxypropylcellulose) (HPC)): 75 % of control
- T/C (dose: 32.0 mg/kg/injection, schedule: Q01DX001 (oral), vehicle: Klucel (hydroxypropylcellulose) (HPC)): 95 % of control
- T/C (dose: 32.0 mg/kg/injection, schedule: Q01DX001 (sc), vehicle: Klucel (hydroxypropylcellulose) (HPC)): 85 % of control and 94 % of control
- T/C (dose: 32.0 mg/kg/injection, schedule: Q01DX009 (oral), vehicle: Klucel (hydroxypropylcellulose) (HPC)): 32 % of control
- T/C (dose: 32.0 mg/kg/injection, schedule: Q01DX009 (sc), vehicle: Klucel (hydroxypropylcellulose) (HPC)): 71 % of control
- T/C (dose: 32.0 mg/kg/injection, schedule: Q04DX003 (ip), vehicle: Klucel (hydroxypropylcellulose) (HPC)): 76 % of control and 94 % of control
- T/C (dose: 32.0 mg/kg/injection, schedule: Q06HX008 (ip), vehicle: Klucel (hydroxypropylcellulose) (HPC)): 62 % of control
- T/C (dose: 32.0 mg/kg/injection, schedule: Q08DX002 (ip), vehicle: Klucel (hydroxypropylcellulose) (HPC)): 74 % of control
- T/C (dose: 50.0 mg/kg/injection, schedule: Q01DX011 (ip), vehicle: steriod suspending solution): 50 % of control
- T/C (dose: 64.0 mg/kg/injection, schedule: Q01DX001 (ip), vehicle: Klucel (hydroxypropylcellulose) (HPC)): 78 % of control
- T/C (dose: 64.0 mg/kg/injection, schedule: Q01DX001 (oral), vehicle: Klucel (hydroxypropylcellulose) (HPC)): 85 % of control
- T/C (dose: 64.0 mg/kg/injection, schedule: Q01DX001 (sc), vehicle: Klucel (hydroxypropylcellulose) (HPC)): 78 % of control and 81 % of control
